Test results as given in BindingDB's records for doi:10.1021/acs.jmedchem.8b01201 (Kezar Life Sciences, 2018).

How the values were obtained:
[1] = Inhibition of 20S proteosome beta 1 in human MOLT4 cells by ELISA
[2] = Inhibition of 20S proteosome beta 2 in human MOLT4 cells by ELISA
[3] = biological target: T1, Proteasome subunit beta type-1 (Mus musculus, UniProt O09061); assay: Inhibition of 20S proteosome beta 1 in mouse A20 cells by ELISA
T1 sequence (O09061 whole entry): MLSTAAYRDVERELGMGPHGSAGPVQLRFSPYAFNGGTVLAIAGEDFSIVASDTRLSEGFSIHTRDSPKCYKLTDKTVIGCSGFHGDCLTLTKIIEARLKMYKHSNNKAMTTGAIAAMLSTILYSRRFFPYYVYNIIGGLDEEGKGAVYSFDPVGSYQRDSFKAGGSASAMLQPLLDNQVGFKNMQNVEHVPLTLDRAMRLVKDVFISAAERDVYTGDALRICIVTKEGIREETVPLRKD

[4] = biological target: T2, Proteasome subunit beta type-1 (Homo sapiens, UniProt P20618); assay: Inhibition of 20S proteosome beta 1 in human MOLT4 cells by ELISA
T2 sequence (P20618 whole entry): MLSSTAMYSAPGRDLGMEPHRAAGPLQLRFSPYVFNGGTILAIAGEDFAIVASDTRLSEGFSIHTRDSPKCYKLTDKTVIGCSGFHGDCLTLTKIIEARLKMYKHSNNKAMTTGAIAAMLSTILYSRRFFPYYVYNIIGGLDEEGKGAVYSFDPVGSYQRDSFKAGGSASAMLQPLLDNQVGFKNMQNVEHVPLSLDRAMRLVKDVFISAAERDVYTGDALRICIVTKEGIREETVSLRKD

[5] = biological target: Proteasome subunit beta type-2 (Homo sapiens, UniProt P49721); assay: Inhibition of 20S proteosome beta 2 in human MOLT4 cells by ELISA
Proteasome subunit beta type-2, sequence (P49721 whole entry): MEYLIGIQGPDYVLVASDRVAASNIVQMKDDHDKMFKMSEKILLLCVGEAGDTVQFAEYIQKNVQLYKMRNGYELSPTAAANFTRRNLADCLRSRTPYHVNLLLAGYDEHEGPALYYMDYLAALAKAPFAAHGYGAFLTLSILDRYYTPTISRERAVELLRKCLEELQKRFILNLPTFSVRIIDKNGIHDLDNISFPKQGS

[6] = Inhibition of 20S proteosome beta 1 in mouse A20 cells by ELISA

SMILES | IC50 [1] | IC50 [2] | IC50 [3] | IC50 [4] | IC50 [5] | IC50 [6]
CC(C)C[C@H](NC(=O)CN1CCCCCC1)C(=O)N[C@@H](Cc1ccccc1)C(=O)N[C@@H](Cc1ccccc1)C(=O)[C@@]1(C)CO1 | > 250 µM | – | > 250 µM | – | – | –
COc1ccc(C[C@H](NC(=O)[C@@H](C)NC(=O)[C@H]2CC[C@H](O)CC2)C(=O)N[C@@H](Cc2ccccc2)C(=O)[C@@]2(C)CO2)cc1 | – | – | – | > 25 µM | > 25 µM | –

Second part, the compound after the results:

IC50 [1] | IC50 [2] | IC50 [3] | IC50 [4] | IC50 [5] | IC50 [6] | SMILES
> 25 µM | > 25 µM | – | – | – | – | COc1ccc(C[C@H](NC(=O)[C@@H](C)NC(=O)[C@H]2CC[C@H](O)CC2)C(=O)N[C@@H](CC2=CCCC2)C(=O)[C@@]2(C)CO2)cc1
> 25 µM | – | > 25 µM | – | 0.413 µM | – | Cc1ccc(CC[C@H](NC(=O)[C@H](Cc2ccccc2)NC(=O)[C@H](CC(C)C)NC(=O)CN2CCCCCC2)C(=O)[C@@]2(C)CO2)cc1
> 10.6 µM | – | – | – | – | > 25 µM | COc1ccc([C@@H](O)[C@H](NC(=O)[C@H](C)NC(=O)CN2CCOCC2)C(=O)N[C@@H](CC2=CCCC2)C(=O)[C@@]2(C)CO2)cc1 [Kzr-616]
